In brackets after ≈: the same amount, converted by molar mass. Read-outs that look alike come from different tables or passages of the source. Each block holds one compound with its values, some of them ahead of it. Starred links: 1 amine or outer side, 2 acyl side, 3 side chain; linkers in the order of their positions; H or OH if unused. Positions of bridges follow the written chain, without caps; N, C: chain ends. Residues, ends and D or L forms follow the SMILES beside them. *: point of attachment. C20 diacid = O=C(O)CCCCCCCCCCCCCCCCCCC(=O)*; γGlu = O=C(O)[C@H](CCC(=O)[*:2])N[*:1]
Experiments:
[1] = target: T1, human amylin receptor (amylin 3(a) receptor: human calcitonin receptor + RAMP-3) (Homo sapiens, UniProt O60896+P30988); test: Assay (II)a functional CRE-luciferase assay, human amylin receptor; type: cell-based; conditions: Table 2; BHK amylin 3(a)-receptor/CRE-luc cells
T1 construct: expressed in transfected cells; host or cells: BHK570
T1 sequence (P30988 25-474): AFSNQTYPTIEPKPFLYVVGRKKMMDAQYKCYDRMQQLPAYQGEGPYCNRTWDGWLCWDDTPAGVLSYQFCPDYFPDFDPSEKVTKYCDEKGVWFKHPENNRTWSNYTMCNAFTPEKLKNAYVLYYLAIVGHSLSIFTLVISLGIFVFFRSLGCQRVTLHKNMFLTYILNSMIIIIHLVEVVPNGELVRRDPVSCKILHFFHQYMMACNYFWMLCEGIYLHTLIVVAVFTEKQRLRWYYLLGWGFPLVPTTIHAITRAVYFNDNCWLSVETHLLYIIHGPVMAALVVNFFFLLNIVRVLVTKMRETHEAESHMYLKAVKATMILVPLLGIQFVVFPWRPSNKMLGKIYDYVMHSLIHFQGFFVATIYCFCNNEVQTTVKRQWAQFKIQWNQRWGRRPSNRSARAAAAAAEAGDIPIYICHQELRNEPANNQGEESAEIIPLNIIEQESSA
T1 sequence (O60896 24-148 partner): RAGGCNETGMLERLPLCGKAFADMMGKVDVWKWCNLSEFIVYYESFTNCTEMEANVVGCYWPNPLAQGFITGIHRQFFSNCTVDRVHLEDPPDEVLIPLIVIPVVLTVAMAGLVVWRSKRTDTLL

[2] = target: T2, human calcitonin receptor (Homo sapiens, UniProt P30988); test: Assay (II)a functional CRE-luciferase assay, human calcitonin receptor; type: cell-based; conditions: Table 7; human calcitonin (CTa) receptor
T2 construct: expressed in transfected cells; host or cells: BHK570
T2 sequence (P30988 25-474): T1 sequence (P30988 25-474)

[3] = Assay (III) ThT fibrillation assay for physical stability; type: physicochemical; conditions: ThT fibrillation assay
From the text: ASSAY (III)—ThT Fibrillation Assays for the Assessment of Physical Stability of Protein formulations Low physical stability of a polypeptide may lead to amyloid fibril formation, which is observed as well-ordered, thread-like macromolecular structures in the sample eventually resulting in gel formation. This has traditionally been measured by visual inspection of the sample. However, that kind of measurement is very subjective and depending on the observer. Therefore, the application of a small molecule indicator probe is much more advantageous. Thioflavin T (ThT) is such a probe and has a distinct fluorescence signature when binding to fibrils [Naiki et al. (1989) Anal. Biochem. 177, 244-249; LeVine (1999) Methods. Enzymol. […], 274-284]. The time course for fibril formation can be described by a sigmoidal curve with the following expression [Nielsen et al. (2001) Biochemistry 40, 6036-6046]: [formula] Here, F is the ThT fluorescence at the time t. The constant t0 is the time needed to reach 50% of maximum fluorescence. […] Few of those intermediates nucleate to form a template onto which further intermediates may assembly and the fibrillation proceeds. The lag-time corresponds to the interval in which the critical mass of nucleus is built up and the apparent rate constant is the rate with which the fibril itself is formed. Sample Preparation Samples were prepared freshly before each assay. Each sample composition is described in each example. The pH of the sample was adjusted to the desired value using appropriate amounts of concentrated NaOH and HClO4 or HCl. Thioflavin T was added to the samples from a stock solution in H2O to a final concentration of 1 μM. Sample aliquots of 200 μl were placed in a 96 well microtiter plate (Packard OptiPlate™-96, white polystyrene). Usually, four or eight replica of each sample (corresponding to one test condition) were placed in one column of wells. The plate was sealed with Scotch Pad (Qiagen). Incubation and Fluorescence Measurement Incubation at given temperature, shaking and measurement of the ThT fluorescence emission were done in a Fluoroskan Ascent FL fluorescence platereader or Varioskan platereader (Thermo Labsystems). The temperature was adjusted to 37° C. The orbital shaking was adjusted to 960 rpm with an amplitude of 1 mm in all the presented data. Fluorescence measurement was done using excitation through a 444 nm filter and measurement of emission through a 485 nm filter. Each run was initiated by incubating the plate at the assay temperature for 10 min. The plate was measured every 20 minutes for a desired period of time. Between each measurement, the plate was shaken and heated as described. Data Handling The measurement points were saved in Microsoft Excel format for further processing and curve drawing and fitting was performed using GraphPad Prism. The background emission from ThT in the absence of fibrils was negligible. The data points are typically a mean of four or eight samples and shown with standard deviation error bars. Only data obtained in the same experiment (i.e. samples on the same plate) are presented in the same graph ensuring a relative measure of fibrillation between experiments. The data set may be fitted to Eq. (1). However, since full sigmodial curves in this case are not always achieved during the measurement time, the degree of fibrillation is expressed as ThT fluorescence tabulated as the mean of the samples and shown with the standard deviation at various time points. Measurement of Initial and Final Concentrations The polypeptide concentration in each of the tested formulations were measured both before application in the ThT fibrillation assay (“Initial”) and after completion of the ThT fibrillation (“After ThT assay”). Concentrations were determined by reverse HPLC methods using a pramlintide standard as a reference. Before measurement after completion 150 μl was collected from each of the replica and transferred to an Eppendorf tube. […]

[4] = Assay (IV) determination of solubility; type: physicochemical
Outline: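 Stock ~500 nmol/ml in water; 1:1 with 100 mM buffer, pH 3.0–8.0 (glycylglycine ≤5.0, bistrispropane ≥6.0); 18 h RT; spin; HPLC quantitation of soluble polypeptide.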

- EC50 [1]: 0.353 nM
- EC50 [2]: 1.65 nM
- ThT pH 4.0 lag time (h) [3]: 4.4 h
- solubility at 18 h ([4]; pH 3.0, read-out: Solubility pH 3.0): >200 µM
- Solubility pH 4.0 (μM) ([4]; pH 4.0, 18 hours at room temperature, Table 2): >200 μM
- solubility at 18 h ([4]; pH 4.0, read-out: Solubility pH 4.0): >200 µM
- solubility at 18 h ([4]; pH 5.0, read-out: Solubility pH 5.0): 62 µM (≈ 278 µg/mL)
- solubility at 18 h ([4]; pH 6.0, read-out: Solubility pH 6.0): 164 µM (≈ 734 µg/mL)
- solubility at 18 h ([4]; pH 6.5, read-out: Solubility pH 6.5): 181 µM (≈ 810 µg/mL)
- Solubility pH 7.0 (μM) ([4]; pH 7.0, 18 hours at room temperature, Table 3): >200 μM
- solubility at 18 h ([4]; pH 7.0, read-out: Solubility pH 7.0): >200 µM
- solubility at 18 h ([4]; pH 7.5, read-out: Solubility pH 7.5): >200 µM
- solubility at 18 h ([4]; pH 8.0, read-out: Solubility pH 8.0): >200 µM
SMILES: CC[C@H](C)[C@H](NC(=O)[C@@H]1CCCN1C(=O)CNC(=O)[C@H](Cc1ccccc1)NC(=O)[C@H](CC(N)=O)NC(=O)[C@H](CC(N)=O)NC(=O)[C@H](CO)NC(=O)[C@H](CO)NC(=O)[C@H](CCCNC(=N)N)NC(=O)[C@H](Cc1c[nH]cn1)NC(=O)[C@H](CC(C)C)NC(=O)[C@H](Cc1ccccc1)NC(=O)[C@H](CCC(=O)O)NC(=O)[C@H](C)NC(=O)[C@H](CC(C)C)NC(=O)[C@H](CCCNC(=N)N)NC(=O)[C@H](CCC(N)=O)NC(=O)[C@@H](NC(=O)[C@H](C)NC(=O)[C@@H]1CSSC[C@H](NC(=O)[C@H](CCC(=O)O)NC(=O)CC[C@H](NC(=O)CCCCCCCCCCCCCCCCCCC(=O)O)C(=O)O)C(=O)N[C@@H](CC(N)=O)C(=O)N[C@@H]([C@@H](C)O)C(=O)N[C@@H](C)C(=O)N[C@@H]([C@@H](C)O)C(=O)N1)[C@@H](C)O)C(=O)N[C@@H](CC(C)C)C(=O)N1CCC[C@H]1C(=O)N1CCC[C@H]1C(=O)N[C@H](C(=O)N[C@@H](CC(N)=O)C(=O)N[C@H](C(=O)NCC(=O)N[C@@H](CO)C(=O)N[C@@H](CC(N)=O)C(=O)N[C@H](C(=O)N[C@@H](Cc1ccc(O)cc1)C(N)=O)[C@@H](C)O)C(C)C)[C@@H](C)O [Example 5, N-alpha-[(S)-4-Carboxy-4-(19-carboxynonadecanoylamino)butyryl]-[Glu1,Glu14,His17,Arg18]-pramlintide] ({C20 diacid-γGlu}-ECNTATCATQRLAEFLHRSSNNFGPILPPTNVGSNTY-NH2; disulfide 2-7 (inferred); C-terminus assumed)

- EC50 [1]: 0.151 nM
- EC50 [2]: 0.74 nM
- ThT pH 4.0 lag time (h) [3]: 1.7 h
- solubility at 18 h ([4]; bistrispropane buffer, pH 6, pH 6.0, read-out: Solubility pH 6.0): 6 µM (≈ 28.2 µg/mL)
- solubility at 18 h ([4]; bistrispropane buffer, pH 7, pH 7.0, read-out: Solubility pH 7.0): 1 µM (≈ 4.7 µg/mL)
- solubility at 18 h ([4]; bistrispropane buffer, pH 7.5, pH 7.5, read-out: Solubility pH 7.5): 13 µM (≈ 61.1 µg/mL)
- solubility at 18 h ([4]; bistrispropane buffer, pH 8, pH 8.0, read-out: Solubility pH 8.0): 73 µM (≈ 343 µg/mL)
- solubility at 18 h ([4]; glycylglycine buffer, pH 3, pH 3.0, read-out: Solubility pH 3.0): > 200 µM
- solubility at 18 h ([4]; glycylglycine buffer, pH 4, pH 4.0, 18 hours at room temperature, Table 2, read-out: Solubility pH 4.0): > 200 µM
- solubility at 18 h ([4]; glycylglycine buffer, pH 4, pH 4.0, read-out: Solubility pH 4.0): > 200 µM
- solubility at 18 h ([4]; glycylglycine buffer, pH 5, pH 5.0, read-out: Solubility pH 5.0): > 200 µM
SMILES: CC[C@H](C)[C@H](NC(=O)[C@@H]1CCCN1C(=O)CNC(=O)[C@H](Cc1ccccc1)NC(=O)[C@H](CC(N)=O)NC(=O)[C@H](CC(N)=O)NC(=O)[C@H](CO)NC(=O)[C@H](CO)NC(=O)[C@H](Cc1c[nH]cn1)NC(=O)[C@@H](NC(=O)[C@H](CC(C)C)NC(=O)[C@H](Cc1ccccc1)NC(=O)[C@H](CCC(=O)O)NC(=O)[C@H](C)NC(=O)[C@H](CC(C)C)NC(=O)[C@H](CCCNC(=N)N)NC(=O)[C@H](CCC(N)=O)NC(=O)[C@@H](NC(=O)[C@H](C)NC(=O)[C@@H]1CSSC[C@H](NC(=O)[C@H](Cc2c[nH]cn2)NC(=O)[C@H](Cc2c[nH]cn2)NC(=O)[C@H](Cc2c[nH]cn2)NC(=O)CC[C@H](NC(=O)CCCCCCCCCCCCCCCCCCC(=O)O)C(=O)O)C(=O)N[C@@H](CC(N)=O)C(=O)N[C@@H]([C@@H](C)O)C(=O)N[C@@H](C)C(=O)N[C@@H]([C@@H](C)O)C(=O)N1)[C@@H](C)O)C(C)C)C(=O)N[C@@H](CC(C)C)C(=O)N1CCC[C@H]1C(=O)N1CCC[C@H]1C(=O)N[C@H](C(=O)N[C@@H](CC(N)=O)C(=O)N[C@H](C(=O)NCC(=O)N[C@@H](CO)C(=O)N[C@@H](CC(N)=O)C(=O)N[C@H](C(=O)N[C@@H](Cc1ccc(O)cc1)C(N)=O)[C@@H](C)O)C(C)C)[C@@H](C)O [Example 20, N-alpha-[(S)-4-Carboxy-4-(19-carboxynonadecanoylamino)butyryl]-His-His-[His1,Glu14]-pramlintide] ({C20 diacid-γGlu}-HHHCNTATCATQRLAEFLVHSSNNFGPILPPTNVGSNTY-NH2; disulfide 4-9 (inferred); C-terminus assumed)

— US8722849B2, “Polypeptides” (Novo Nordisk A/S, priority 2011, dated 2014)
